Values joined by “and” are separate entries in the source; they are usually repeats but may differ in a detail not shown here. Identical values can stand only once.
Assays:
SARS-CoV2 = experiment: microbe, parasite or virus in culture; assay type: cell-based; conditions: for Percentages of infection at 24 h: MOI 0.002, technical replicates
Vero cells = conditions: uninfected Vero cells, MTT, 24 h
[1] = Severe acute respiratory syndrome coronavirus 2, Vero, 24 h

CCC(CC)COC(=O)[C@H](C)N[P@](=O)(OC[C@H]1O[C@@](C#N)(c2ccc3c(N)ncnn23)[C@H](O)[C@@H]1O)Oc1ccccc1 [Remdesivir]
Percentages of infection at 24 h (SARS-CoV2; 0.01 μM): 17.52% and 14.77% and 19.44% | Percentages of infection at 24 h (SARS-CoV2; 0.03 μM): 20.60% and 10.69% and 23.44% | Percentages of infection at 24 h (SARS-CoV2; 0.08 μM): 37.97% and 32.40% and 10.00% | Percentages of infection at 24 h (SARS-CoV2; 0.25 μM): 8.05% and 17.17% and 39.50% | Percentages of infection at 24 h (SARS-CoV2; 0.74 μM): 10.55% and 6.40% and 14.40% | Percentages of infection at 24 h (SARS-CoV2; 2.22 μM): 2.04% and 1.54% and 1.69% | Percentages of infection at 24 h (SARS-CoV2; 6.67 μM): 0.34% and 0.27% and 0.23% | Percentages of infection at 24 h (SARS-CoV2; 20.00 μM): 0.78% and 0.24% and 0.27% | EC50 (SARS-CoV2; [1]): 0.654 µM | EC90 (SARS-CoV2; [1]): 1690 µM | TC90 (Vero cells): 3.4416 µM

From patent US20230158067A1 (priority 2020, published 2023)
